Earlier results, collected in patent publication US8445670B2, “Combinatorial library approach to iminocyclitols with biological activity” (United Therapeutics Corporation, priority 2005, dated 2013).

System: bovine viral diarrhoea virus (BVDV)
Settings: reference DNJ derivatives, values given with literature references

Row | IC50 | SMILES
1 | 125 µM | CCCCN1C[C@H](O)[C@@H](O)[C@H](O)[C@H]1CO [N-n-butyl DNJ]
2 | 10 µM | CCCCCCCCCN1C[C@H](O)[C@@H](O)[C@H](O)[C@H]1CO [N-n-nonyl DNJ]
